# Source: patent US12708630B2, “Combined therapy of 4′-thio-5-aza-2′-deoxycytidine and Venetoclax” (PINOTBIO, INC., priority 2021, dated 2026)
# Where two headings read alike, the source gives them in different places.
# How the values were obtained:
# [1] = Pharmacokinetic evaluation in Mice (Table 4); settings: mouse, in vivo; for half-life: read-out: T½ (converted)
# Procedure: Aza-T-dCyd was administered orally and intravenously at various concentrations to Mice, Rats and Dogs to determine the PK profile.
# [2] = test system: Molm13 Xenograft model; assay: Molm13 Xenograft model; assay type: in vivo; settings: oral 0.2-1.5 mg/kg
# [3] = test system: systemic MV4-11 engraftment model; settings: for survival: oral
# Procedure: After establishing a systemic MV4-11 engraftment model that more accurately depicts the disease in humans, Aza-T-dCyd was administered orally at doses ranging from 0.4 to 1.5 mg/kg.
# After establishment of the systemic MV4-11 engraftment model, Aza-T-dCyd was administered orally at doses of 1.5, 2.0, and 2.5 mg/kg (using the standard dose/dosing schedule used in preclinical trials for decitabine/azacytidine).
# After establishing a systemic MV4-11 engraftment model, blood was collected at pre-treatment (Day 21) and mid-treatment (Day 36, 56, 77) in the Aza-T-dCyd and Decitabine/Azacytidine groups and analyzed for complete blood count (CBC) values.
# To determine whether the anti-cancer efficacy in the systemic MV4-11 engraftment model was directly related to the ability to suppress the number of cancer cells, we performed experiments to measure body luminescence after systemic engraftment using the luciferase-transfected Mv4-11 cell line.
# [4] = test system: OVCAR-3 (ovarian); assay: OVCAR-3 (ovarian) xenograft model; assay type: in vivo; settings: NSG mouse, (4) cycles
# Excerpt: The efficacy of Aza-T-dCyd was confirmed by tumor growth curves after administration of Aza-T-dCyd in various solid cancer xenograft models. […]
# [5] = Preliminary toxicity experiments (Comet assay, bone marrow); assay type: in vivo; settings: mice
# Procedure: As a preliminary toxicity assessment of the Aza-T-dCyd compound, preliminary toxicity experiments were conducted to determine the presence of toxicity symptoms (tissue changes) and DNA damage in bone marrow in mice after 2 weeks of systemic administration, and to assess the cellular composition in bone marrow of mice after 4 weeks of systemic administration.
# [6] = biological target: DNMT1 (Homo sapiens, UniProt P26358); assay: DNMT1 expression in HL-60 xenograft tumor samples; assay type: in vivo, mice; parameters: tumor samples were collected on day 11 to determine the expression of DNMT1, DNMT3A, and DNMT3B; from tissue; host or cells: HL-60 xenograft tumour samples (mouse host); settings: 2 mg/kg NTX-301 or 0.75 mg/kg Decitabine intraperitoneally, day 11
# Procedure: As the efficacy of DNMT1 inhibitors correlates with their selective profile for targeting DNMT1 and the de novo methyltransferases DNMT3A and DNMT3B, we confirmed the expression of DNMT1, DNMT3A, and DNMT3B in the Aza-T-dCyd and Decitabine treated groups in this xenograft model (FIG. 27).
# In the HL-60 xenograft mice model, 2 mg/kg of NTX-301 (Aza-T-dCyd) or 0.75 mg/kg of Decitabine were administered intraperitoneally, and then tumor samples were collected on day 11 to determine the expression of DNMT1, DNMT3A, and DNMT3B. […] On the other hand, the expression levels of DNMT3A and DNMT3B were different in the Aza-T-dCyd and Decitabine treatment groups.
# [7] = test system: DNMT1 knock-out MV4-11 cells; assay: Target engagement: cytotoxicity in DNMT1 knock-out MV4-11 cell line; assay type: cell-based; settings: DNMT1 knock-out (siRNA) MV4-11, concentration-dependent treatment
# Excerpt: This confirms that Aza-T-dCyd has potent pharmacological effects through DNMT1 (FIG. 18).
# DNMT1, sequence (P26358 whole entry): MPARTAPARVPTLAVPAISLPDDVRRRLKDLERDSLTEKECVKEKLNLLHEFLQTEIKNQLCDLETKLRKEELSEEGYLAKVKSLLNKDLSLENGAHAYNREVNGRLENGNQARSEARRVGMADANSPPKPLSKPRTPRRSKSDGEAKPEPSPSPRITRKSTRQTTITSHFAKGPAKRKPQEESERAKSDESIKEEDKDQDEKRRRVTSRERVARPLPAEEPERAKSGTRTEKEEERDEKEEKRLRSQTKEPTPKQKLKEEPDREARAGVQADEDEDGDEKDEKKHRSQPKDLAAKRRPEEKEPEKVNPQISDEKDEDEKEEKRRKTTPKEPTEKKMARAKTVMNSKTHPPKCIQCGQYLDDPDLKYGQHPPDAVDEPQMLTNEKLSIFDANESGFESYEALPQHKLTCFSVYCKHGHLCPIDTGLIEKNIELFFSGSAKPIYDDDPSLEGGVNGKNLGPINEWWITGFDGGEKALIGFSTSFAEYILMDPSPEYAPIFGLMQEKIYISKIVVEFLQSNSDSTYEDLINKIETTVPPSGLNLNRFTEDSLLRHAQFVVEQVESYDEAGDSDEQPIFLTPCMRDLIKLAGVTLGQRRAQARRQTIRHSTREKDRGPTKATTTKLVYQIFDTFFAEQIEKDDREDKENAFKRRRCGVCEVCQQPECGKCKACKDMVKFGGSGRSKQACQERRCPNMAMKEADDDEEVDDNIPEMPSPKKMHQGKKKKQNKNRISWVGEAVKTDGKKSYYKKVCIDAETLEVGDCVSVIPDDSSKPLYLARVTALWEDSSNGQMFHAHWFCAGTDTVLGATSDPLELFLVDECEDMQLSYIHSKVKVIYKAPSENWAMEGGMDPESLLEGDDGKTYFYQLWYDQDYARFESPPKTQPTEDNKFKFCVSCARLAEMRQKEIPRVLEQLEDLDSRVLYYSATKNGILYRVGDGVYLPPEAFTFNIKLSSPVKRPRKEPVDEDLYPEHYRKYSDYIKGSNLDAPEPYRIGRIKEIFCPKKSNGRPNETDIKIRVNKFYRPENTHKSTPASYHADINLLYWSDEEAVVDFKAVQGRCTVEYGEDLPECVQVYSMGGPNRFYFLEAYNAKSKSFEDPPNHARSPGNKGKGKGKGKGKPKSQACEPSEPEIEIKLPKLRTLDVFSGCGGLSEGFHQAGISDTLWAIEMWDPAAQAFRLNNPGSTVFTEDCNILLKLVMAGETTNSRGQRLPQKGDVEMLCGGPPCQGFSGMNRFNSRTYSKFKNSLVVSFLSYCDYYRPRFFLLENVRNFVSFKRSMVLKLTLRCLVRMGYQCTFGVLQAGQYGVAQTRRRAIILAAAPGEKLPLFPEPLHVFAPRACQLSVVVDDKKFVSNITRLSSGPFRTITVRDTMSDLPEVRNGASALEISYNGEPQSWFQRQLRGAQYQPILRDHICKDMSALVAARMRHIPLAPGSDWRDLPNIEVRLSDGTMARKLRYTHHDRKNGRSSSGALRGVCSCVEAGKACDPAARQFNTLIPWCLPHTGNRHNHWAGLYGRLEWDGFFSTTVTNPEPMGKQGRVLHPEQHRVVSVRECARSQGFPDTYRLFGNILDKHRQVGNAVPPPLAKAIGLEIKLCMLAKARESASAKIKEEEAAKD
smiles,measurement,setting,value
"Nc1ncn([C@H]2CC(O)[C@@H](CO)S2)c(=O)n1 (stereo partly drawn) [Aza-T-dCyd, 4′-thio-5-aza-2′-deoxycytidine]",AUC(0-inf),"[1]; Table 4, IV 1 mg/kg",406 ng·h/mL
same,AUC(0-t),"[1]; Table 4, IV 1 mg/kg",370 ng·h/mL
same,Cmax,"[1]; Table 4, IV 1 mg/kg",527 ng/mL
same,half-life,"[1]; Table 4, IV 1 mg/kg",36.7 min
same,AUC(0-inf),"[1]; Table 4, PO 0.5 mg/kg",131 ng·h/mL
same,AUC(0-t),"[1]; Table 4, PO 0.5 mg/kg",118 ng·h/mL
same,Cmax,"[1]; Table 4, PO 0.5 mg/kg",211 ng/mL
same,Tmax,"[1]; Table 4, PO 0.5 mg/kg",30 min
same,half-life,"[1]; Table 4, PO 0.5 mg/kg",18.2 min
same,AUC(0-inf),"[1]; Table 4, PO 1 mg/kg",235 ng·h/mL
same,AUC(0-t),"[1]; Table 4, PO 1 mg/kg",136 ng·h/mL
same,Cmax,"[1]; Table 4, PO 1 mg/kg",138 ng/mL
same,Tmax,"[1]; Table 4, PO 1 mg/kg",15 min
same,half-life,"[1]; Table 4, PO 1 mg/kg",103 min
same,AUC(0-inf),"[1]; Table 4, PO 3 mg/kg",443 ng·h/mL
same,AUC(0-t),"[1]; Table 4, PO 3 mg/kg",303 ng·h/mL
same,Cmax,"[1]; Table 4, PO 3 mg/kg",256 ng/mL
same,Tmax,"[1]; Table 4, PO 3 mg/kg",15 min
same,half-life,"[1]; Table 4, PO 3 mg/kg",66.6 min
same,AUC(0-inf),"[1]; Table 4, PO 10 mg/kg",1460 ng·h/mL
same,AUC(0-t),"[1]; Table 4, PO 10 mg/kg",1340 ng·h/mL
same,Cmax,"[1]; Table 4, PO 10 mg/kg",863 ng/mL
same,Tmax,"[1]; Table 4, PO 10 mg/kg",20 min
same,half-life,"[1]; Table 4, PO 10 mg/kg",69 min
same,anti-cancer effect,[2],potent anti-cancer effect in a dose-dependent manner
same,toxicity signals (body weight changes),[2],without any toxicity signals
same,anti-AML activity and survival,"[3]; Aza-T-dCyd oral 1.5, 2.0 and 2.5 mg/kg, decitabine/azacytidine at standard preclinical dose/schedule",very good anti-AML activity and improved survival
same,body luminescence,"[3]; luciferase-transfected Mv4-11 cell line, systemic engraftment",inhibited body luminescence more strongly than the actual Azacytidine treatment
same,"complete blood count (WBC, RBC, Neutrophil, Platelet)","[3]; mouse, in vivo",no changes
same,survival,[3]; highest dose (range 0.4 to 1.5 mg/kg),more than half of the mice survived to the end of the experiment
same,survival,[3]; lowest dose of 0.4 mg/kg,statistically significant survival improvement
same,Optimal T/C (%) (test/control),[4]; 0.5 mg/kg,40%
same,Optimal T/C (%) (test/control),[4]; 1 mg/kg,4%
same,cellular composition of the bone marrow,[5]; 4 weeks of continuous administration,no changes in the various cells that make up the bone marrow
same,organ damage at necropsy,[5]; after two weeks,no organ damage
same,Comet assay for DNA damage in bone marrow,"[5]; after two weeks of treatment, versus untreated control",no changes in various indicators of DNA damage
same,weight changes,[5]; two-week systemic administration,no significant weight changes
same,DNMT1 expression in tumor samples,[6],significantly reduced
same,cytotoxicity in DNMT1 knock-out cell line,[7],decrease in cytotoxicity
